Laboratory results published in PubChem BioAssay (NCI).
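Where inhibition never reached the appropriate level, the endpoint shown equals the highest concentration tested. Otherwise, values were interpolated linearly from a five-concentration, 48-hour dose response in 96-well plates. GI50: concentration for 50% inhibition of growth. Definition used: TGI = concentration required for complete inhibition of growth.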

Assays:
Assay in all cases: DTP human tumour cell line panel, 48 h
[1] = test system: 786-0 renal
[2] = test system: A498 renal
[3] = test system: A549 NSCLC
[4] = test system: ACHN renal
[5] = test system: BT-549 breast
[6] = test system: CAKI-1 renal
[7] = test system: CCRF-CEM leukemia
[8] = test system: COLO 205 colon
[9] = test system: DU-145 prostate
[10] = test system: EKVX NSCLC
[11] = test system: HCC-2998 colon
[12] = test system: HCT-116 colon
[13] = test system: HCT-15 colon
[14] = test system: HL-60(TB) leukemia
[15] = test system: HOP-62 NSCLC
[16] = test system: HOP-92 NSCLC
[17] = test system: HS 578T breast
[18] = test system: HT29 colon
[19] = test system: IGROV1 ovarian
[20] = test system: K-562 leukemia
[21] = test system: KM12 colon
[22] = test system: LOX IMVI melanoma
[23] = test system: M14 melanoma
[24] = test system: MALME-3M melanoma
[25] = test system: MCF7 breast
[26] = test system: MDA-MB-231 breast
[27] = test system: MDA-MB-435
[28] = test system: MOLT-4 leukemia
[29] = test system: NCI-H226 lung
[30] = test system: NCI-H460 lung
[31] = test system: NCI-H522 lung
[32] = test system: NCI/ADR-RES ovarian
[33] = test system: OVCAR-3 ovarian
[34] = test system: OVCAR-4 ovarian
[35] = test system: OVCAR-5 ovarian
[36] = test system: OVCAR-8 ovarian
[37] = test system: PC-3 prostate
[38] = test system: RPMI-8226 leukemia
[39] = test system: RXF 393 renal
[40] = test system: SF-268 CNS
[41] = test system: SF-295 CNS
[42] = test system: SF-539 CNS
[43] = test system: SK-MEL-2 melanoma
[44] = test system: SK-MEL-28 melanoma
[45] = test system: SK-MEL-5 melanoma
[46] = test system: SK-OV-3 ovarian
[47] = test system: SN12C renal
[48] = test system: SNB-19 CNS
[49] = test system: SNB-75 CNS
[50] = test system: SR leukemia
[51] = test system: SW-620 colon
[52] = test system: T-47D breast
[53] = test system: TK-10 renal
[54] = test system: U251 CNS
[55] = test system: UACC-257 melanoma
[56] = test system: UACC-62 melanoma
[57] = test system: UO-31 renal

Compound COc1cc(OC)c(S(N)(=O)=O)cc1C(=O)/C=C/c1ccc(C)cc1 has a GI50 [1] of 3.85 µM, a TGI [1] of 22.3 µM and a GI50 [2] of 16.2 µM. For the same compound, the TGI [2] was 30.7 µM, the GI50 [3] was 2750 nM and the TGI [3] was 10.3 µM. For the same compound, the GI50 [4] was 3.86 µM, the TGI [4] was 13.9 µM and the GI50 [5] was 2180 nM. It also gave a TGI [5] of 6.79 µM, a GI50 [6] of 2420 nM and a TGI [6] of 12.4 µM. The GI50 [7] was 3.99 µM, the TGI [7] was greater than 100 µM and the GI50 [8] was 3.33 µM. For the same compound, the TGI [8] was 9.26 µM, the GI50 [9] was 4.23 µM and the TGI [9] was 18.9 µM. It also gave a GI50 [10] of 4.33 µM, a TGI [10] of 16.4 µM and a GI50 [11] of 2390 nM. The TGI [11] was 5.47 µM, the GI50 [12] was 3.06 µM and the TGI [12] was 12.2 µM. It also gave a GI50 [13] of 2560 nM, a TGI [13] of 12.9 µM and a GI50 [14] of 2520 nM. For the same compound, the TGI [14] was 15.8 µM, the GI50 [15] was 2900 nM and the TGI [15] was 7.72 µM. For the same compound, the GI50 [16] was 2300 nM, the TGI [16] was 7.45 µM and the GI50 [17] was 3.5 µM. The TGI [17] was 35.8 µM, the GI50 [18] was 3.5 µM and the TGI [18] was 10.1 µM. For the same compound, the GI50 [19] was 3.56 µM, the TGI [19] was 14.4 µM and the GI50 [20] was 2430 nM. For the same compound, the TGI [20] was greater than 100 µM, the GI50 [21] was 3.13 µM and the TGI [21] was 14.5 µM. For the same compound, the GI50 [22] was 543 nM, the TGI [22] was 5.01 µM and the GI50 [23] was 3.25 µM. For the same compound, the TGI [23] was 13 µM, the GI50 [24] was 8.55 µM and the TGI [24] was 23.6 µM. For the same compound, the GI50 [25] was 2480 nM, the TGI [25] was 12.4 µM and the GI50 [26] was 3.41 µM. It also gave a TGI [26] of 12.5 µM, a GI50 [27] of 2270 nM and a TGI [27] of 6.72 µM. For the same compound, the GI50 [28] was 3.07 µM, the TGI [28] was 29.6 µM and the GI50 [29] was 4.14 µM. The TGI [29] was 19.3 µM, the GI50 [30] was 2240 nM and the TGI [30] was 5.65 µM. The GI50 [31] was 2480 nM, the TGI [31] was 8.03 µM and the GI50 [32] was 5.25 µM. It also gave a TGI [32] of 49.2 µM, a GI50 [33] of 3.05 µM and a TGI [33] of 12.6 µM. For the same compound, the GI50 [34] was 3.66 µM, the TGI [34] was 16.3 µM and the GI50 [35] was 2570 nM. The TGI [35] was 7.12 µM, the GI50 [36] was 2170 nM and the TGI [36] was 5.19 µM. It also gave a GI50 [37] of 3.42 µM, a TGI [37] of 14.4 µM and a GI50 [38] of 3.2 µM. It also gave a TGI [38] of 24.7 µM, a GI50 [39] of 2240 nM and a TGI [39] of 6.06 µM. It also gave a GI50 [40] of 3.2 µM, a TGI [40] of 19.8 µM and a GI50 [41] of 3.89 µM. For the same compound, the TGI [41] was 11.5 µM, the GI50 [42] was 2170 nM and the TGI [42] was 5.05 µM. For the same compound, the GI50 [43] was 11.5 µM, the TGI [43] was 25.3 µM and the GI50 [44] was 4.09 µM. For the same compound, the TGI [44] was 15.3 µM, the GI50 [45] was 7.81 µM and the TGI [45] was 21.1 µM. For the same compound, the GI50 [46] was 3.18 µM, the TGI [46] was 9.43 µM and the GI50 [47] was 2950 nM. The TGI [47] was 11.4 µM, the GI50 [48] was 3.65 µM and the TGI [48] was 15.1 µM. For the same compound, the GI50 [49] was 1840 nM, the TGI [49] was 5.09 µM and the GI50 [50] was 2260 nM. It also gave a TGI [50] of 12.9 µM, a GI50 [51] of 3.43 µM and a TGI [51] of 12.6 µM. The GI50 [52] was 2320 nM, the TGI [52] was 7.55 µM and the GI50 [53] was 3.41 µM. It also gave a TGI [53] of 12.3 µM, a GI50 [54] of 2660 nM and a TGI [54] of 10.1 µM. For the same compound, the GI50 [55] was 3.86 µM, the TGI [55] was 15.9 µM and the GI50 [56] was 3.63 µM. It also gave a TGI [56] of 15.2 µM, a GI50 [57] of 3.46 µM and a TGI [57] of 14.5 µM.
